# Key:
# kochia = assay: Test C postemergence; type: in vivo, Kochia scoparia; details: for Plant response rating (scale of 0 to 100 where 0 is no effect and 100 is complete control), Kochia: Postemergence, 31 g ai/ha, visually evaluated after 13 to 15 days; for Kochia plant response rating / Plant response rating, Kochia: postemergence; for Kochia plant response rating: 62 g ai/ha, scale 0 to 100
# Method in brief: (§1)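 Seeds sown in loam–sand blend and treated preemergence with test chemicals in non-phytotoxic solvent with surfactant; postemergence plants in peat-based medium, treated at 2–18 cm (1- to 4-leaf stage). Greenhouse 13 to 15 days, then visual rating versus controls, 0 (no effect) to 100 (complete control).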
# ducksalad = assay: Test B flood; type: in vivo, Heteranthera limosa; details: 250 g ai/ha, visual rating on 0 to 100 scale (0 no effect, 100 complete control), 13 to 15 days
# Method in brief: (§2)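 Plants were grown to the 2-leaf stage, then pots were flooded to 3 cm above the soil and compounds were applied directly into the paddy water. Water depth was held for the whole test; after 13 to 15 days in a greenhouse, injury was visually rated against untreated controls (0 = no effect, 100 = complete control).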
# morningglory = assay: Test C preemergence; type: in vivo, Ipomoea coccinea; details: for Plant response rating (scale of 0 to 100), Morningglory: Preemergence, 250 g ai/ha
# Method in brief: as §1
# soybean = assay: Test C postemergence; type: in vivo, Glycine max; details: for Plant response rating (scale of 0 to 100 where 0 is no effect and 100 is complete control), Soybean: Postemergence, 31 g ai/ha, visually evaluated after 13 to 15 days; for Soybean plant response rating / Plant response rating, Soybean: postemergence; for Soybean plant response rating: 62 g ai/ha, scale 0 to 100
# Method in brief: as §1
# waterhemp = assay: Test C preemergence; type: in vivo, Amaranthus rudis; details: for Plant response rating (scale of 0 to 100), Waterhemp: Preemergence, 250 g ai/ha
# Method in brief: as §1
# velvetleaf = assay: Test C preemergence; type: in vivo, Abutilon theophrasti; details: for Plant response rating (scale of 0 to 100), Velvetleaf: Preemergence, 250 g ai/ha
# Method in brief: as §1
# nutsedge, yellow [1] = assay: Test C postemergence; type: in vivo, Cyperus esculentus; details: for Plant response rating (scale of 0 to 100 where 0 is no effect and 100 is complete control), Nutsedge, Yellow: Postemergence, 31 g ai/ha, visually evaluated after 13 to 15 days; for Nutsedge, Yellow plant response rating / Plant response rating, Nutsedge, Yellow: postemergence; for Nutsedge, Yellow plant response rating: 62 g ai/ha, scale 0 to 100
# Method in brief: as §1
# rice = assay: Test B flood; type: in vivo, Oryza sativa; details: 250 g ai/ha, visual rating on 0 to 100 scale (0 no effect, 100 complete control), 13 to 15 days
# Method in brief: as §2
# barnyardgrass = assay: Test A preemergence; type: in vivo, Echinochloa crus-galli; details: preemergence
# Method in brief: (§3)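 Ratings express plant response from 0 (no effect) to 100 (complete control), judged visually against untreated controls after approximately 10 days in the greenhouse. Preemergence applications were made as directed soil sprays onto seeded loam–sand mix, and postemergence applications onto 2–10 cm plants at one- to two-leaf stage.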
# johnsongrass = assay: Test C postemergence; type: in vivo, Sorghum halepense; details: for Plant response rating (scale of 0 to 100 where 0 is no effect and 100 is complete control), Johnsongrass: Postemergence, 31 g ai/ha, visually evaluated after 13 to 15 days; for Johnsongrass plant response rating / Plant response rating, Johnsongrass: postemergence; for Johnsongrass plant response rating: 62 g ai/ha, scale 0 to 100
# Method in brief: as §1
# lambsquarters = assay: Test C preemergence; type: in vivo, Chenopodium album; details: for Plant response rating (scale of 0 to 100), Lambsquarters: Preemergence, 250 g ai/ha
# Method in brief: as §1
# nutsedge, yellow [2] = assay: Test C preemergence; type: in vivo, Cyperus esculentus; details: for Plant response rating (scale of 0 to 100), Nutsedge, Yellow: Preemergence, 250 g ai/ha
# Method in brief: as §1
# crabgrass, large = assay: Test A postemergence; type: in vivo, Digitaria sanguinalis
# Method in brief: as §3
# [3] = 250 g ai/ha, scale 0 to 100 (0 no effect, 100 complete control)
# [4] = 125 g ai/ha, scale 0 to 100, 0 no effect, 100 complete control
# [5] = preemergence, 31 g ai/ha, visual rating, scale 0 to 100 (0 no effect, 100 complete control), 13 to 15 days
# [6] = preemergence, 62 g ai/ha, scale 0 to 100 (0 no effect, 100 complete control), 13 to 15 days
# [7] = preemergence, 125 g ai/ha, scale 0 to 100, 0 is no effect, 100 is complete control
# [8] = 125 g ai/ha, visual injury, 0 to 100 scale, approx. 10 days
# [9] = 500 g ai/ha, visual injury after approx. 10 days, 0 to 100 scale (0 no effect, 100 complete control)
# [10] = postemergence, 125 g ai/ha, about 10 days, visual rating on 0 to 100 scale (0 no effect, 100 complete control)
# [11] = preemergence, 125 g ai/ha, 13 to 15 days, scale 0 to 100, 0 = no effect, 100 = complete control
compound,measurement,setting,value
CCCNC(=O)c1cc(CC)n(Cc2nc(C(F)(F)F)nn2C)n1 [Compound 109],"Plant response rating (scale of 0 to 100 where 0 is no effect and 100 is complete control), Kochia",kochia,50
same,Kochia plant response rating,kochia,75
same,"Plant response rating, Kochia",kochia; [3],90
same,"Plant response rating, Kochia",kochia; [4],90
same,"Plant response rating, Ducksalad",ducksalad,0
same,"Plant response rating (scale of 0 to 100), Morningglory",morningglory,100
same,Morningglory plant response rating,morningglory; [5],95
same,Morningglory plant response rating,morningglory; [6],100
same,Morningglory plant response rating,morningglory; [7],100
same,"Plant response rating (scale of 0 to 100 where 0 is no effect and 100 is complete control), Soybean",soybean,55
same,Soybean plant response rating,soybean,60
same,"Plant response rating, Soybean",soybean; [3],75
same,"Plant response rating, Soybean",soybean; [4],75
same,"Plant response rating (scale of 0 to 100), Waterhemp",waterhemp,100
same,Waterhemp plant response rating,waterhemp; [5],75
same,Waterhemp plant response rating,waterhemp; [6],100
same,Waterhemp plant response rating,waterhemp; [7],100
same,"Plant response rating (scale of 0 to 100), Velvetleaf",velvetleaf,100
same,Velvetleaf plant response rating,velvetleaf; [5],10
same,Velvetleaf plant response rating,velvetleaf; [6],80
same,Velvetleaf plant response rating,velvetleaf; [7],100
same,"Plant response rating (scale of 0 to 100 where 0 is no effect and 100 is complete control), Nutsedge, Yellow","nutsedge, yellow [1]",0
same,"Nutsedge, Yellow plant response rating","nutsedge, yellow [1]",5
same,"Plant response rating, Nutsedge, Yellow","nutsedge, yellow [1]; [3]",5
same,"Plant response rating, Nutsedge, Yellow","nutsedge, yellow [1]; [4]",5
same,"Plant response rating, Rice",rice,0
same,Barnyardgrass plant response rating,barnyardgrass; [8],100
same,Barnyardgrass plant response rating,barnyardgrass; [9],100
same,"Plant response rating (scale of 0 to 100 where 0 is no effect and 100 is complete control), Johnsongrass",johnsongrass,5
same,Johnsongrass plant response rating,johnsongrass,5
same,"Plant response rating, Johnsongrass",johnsongrass; [3],10
same,"Plant response rating, Johnsongrass",johnsongrass; [4],5
same,"Plant response rating (scale of 0 to 100), Lambsquarters",lambsquarters,100
same,Lambsquarters plant response rating,lambsquarters; [5],100
same,Lambsquarters plant response rating,lambsquarters; [6],100
same,Lambsquarters plant response rating,lambsquarters; [7],100
same,"Plant response rating (scale of 0 to 100), Nutsedge, Yellow","nutsedge, yellow [2]",60
same,"Nutsedge, Yellow plant response rating","nutsedge, yellow [2]; [5]",5
same,"Nutsedge, Yellow plant response rating","nutsedge, yellow [2]; [6]",25
same,"Nutsedge, Yellow plant response rating","nutsedge, yellow [2]; [7]",40
same,"Crabgrass, Large plant response rating","crabgrass, large; Postemergence, 500 g ai/ha, visual rating after approx. 10 days, 0 to 100 scale (0 no effect, 100 complete control)",90
same,"Crabgrass, Large plant response rating","crabgrass, large; [10]",90
CCONC(=O)c1cc(CC)n(Cc2ccnc(OC(F)F)c2)n1 [Compound 131],"Plant response rating (scale of 0 to 100 where 0 is no effect and 100 is complete control), Kochia",kochia,40
same,Kochia plant response rating,kochia,70
same,"Plant response rating, Kochia",kochia; [3],75
same,"Plant response rating, Kochia",kochia; [4],70
same,"Plant response rating, Ducksalad",ducksalad,90
same,"Plant response rating (scale of 0 to 100), Morningglory",morningglory,100
same,Morningglory plant response rating,morningglory; [5],40
same,Morningglory plant response rating,morningglory; [6],100
same,"Plant response rating, Morningglory",morningglory; [11],100
same,"Plant response rating (scale of 0 to 100 where 0 is no effect and 100 is complete control), Soybean",soybean,20
same,Soybean plant response rating,soybean,25
same,"Plant response rating, Soybean",soybean; [3],80
same,"Plant response rating, Soybean",soybean; [4],35
same,"Plant response rating (scale of 0 to 100), Waterhemp",waterhemp,100
same,Waterhemp plant response rating,waterhemp; [5],100
same,Waterhemp plant response rating,waterhemp; [6],100
same,"Plant response rating, Waterhemp",waterhemp; [11],100
same,"Plant response rating (scale of 0 to 100), Velvetleaf",velvetleaf,100
same,Velvetleaf plant response rating,velvetleaf; [5],25
same,Velvetleaf plant response rating,velvetleaf; [6],80
same,"Plant response rating, Velvetleaf",velvetleaf; [11],100
same,"Plant response rating (scale of 0 to 100 where 0 is no effect and 100 is complete control), Nutsedge, Yellow","nutsedge, yellow [1]",5
same,"Nutsedge, Yellow plant response rating","nutsedge, yellow [1]",5
same,"Plant response rating, Nutsedge, Yellow","nutsedge, yellow [1]; [3]",20
same,"Plant response rating, Nutsedge, Yellow","nutsedge, yellow [1]; [4]",10
same,"Plant response rating, Rice",rice,40
same,Barnyardgrass plant response rating,barnyardgrass; [8],100
same,Barnyardgrass plant response rating,barnyardgrass; [9],100
same,"Plant response rating (scale of 0 to 100 where 0 is no effect and 100 is complete control), Johnsongrass",johnsongrass,0
same,Johnsongrass plant response rating,johnsongrass,0
same,"Plant response rating, Johnsongrass",johnsongrass; [3],10
same,"Plant response rating, Johnsongrass",johnsongrass; [4],0
same,"Plant response rating (scale of 0 to 100), Lambsquarters",lambsquarters,100
same,Lambsquarters plant response rating,lambsquarters; [5],98
same,Lambsquarters plant response rating,lambsquarters; [6],100
same,"Plant response rating, Lambsquarters",lambsquarters; [11],100
same,"Plant response rating (scale of 0 to 100), Nutsedge, Yellow","nutsedge, yellow [2]",90
same,"Nutsedge, Yellow plant response rating","nutsedge, yellow [2]; [5]",45
same,"Nutsedge, Yellow plant response rating","nutsedge, yellow [2]; [6]",50
same,"Plant response rating, Nutsedge, Yellow","nutsedge, yellow [2]; [11]",95
same,"Crabgrass, Large plant response rating","crabgrass, large; Postemergence, 500 g ai/ha, 0 to 100 scale (0 no effect, 100 complete control)",90
same,"Crabgrass, Large plant response rating","crabgrass, large; [10]",70
